Key:
Experiment in all cases: area under dose-response curve (viability, 1 nM-10 uM) (fraction (0-1)); higher = more sensitive
Conditions in all cases: 72 h
[1] = system: myeloid leukemia patient primary cells Pat.10
Experimental: (§1)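 AUC (0–1, higher = more sensitive) of the 5-point dose–response (1 nM–10 µM, 72 h, CellTiter-Glo) in primary AML/CML patient mononuclear cells. 0.030103 is the floor for inactive compounds.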

[2] = system: myeloid leukemia patient primary cells Pat.11
Experimental: as §1

[3] = system: myeloid leukemia patient primary cells Pat.12
Experimental: as §1

[4] = system: myeloid leukemia patient primary cells Pat.15
Experimental: as §1

[5] = system: myeloid leukemia patient primary cells Pat.1
Experimental: as §1

[6] = system: myeloid leukemia patient primary cells Pat.4
Experimental: as §1

[7] = system: myeloid leukemia patient primary cells Pat.5
Experimental: as §1

[8] = system: myeloid leukemia patient primary cells Pat.7
Experimental: as §1

[9] = system: myeloid leukemia patient primary cells Pat.8
Experimental: as §1

[10] = system: myeloid leukemia patient primary cells Pat.9
Experimental: as §1

Compound | area under dose-response curve [1] | area under dose-response curve [2] | area under dose-response curve [3] | area under dose-response curve [4] | area under dose-response curve [5] | area under dose-response curve [6] | area under dose-response curve [7] | area under dose-response curve [8] | area under dose-response curve [9] | area under dose-response curve [10]
CC12CCC(O)CC1CCC1C2CCC2(C)C(C3=CC(=O)OC3)CCC12O (stereo not drawn) [Digitoxigenin] | < 0.0301 | 0.279 | 0.208 | 0.357 | 0.388 | 0.373 | 0.713 | < 0.0301 | 0.391 | 0.658
Sc1ncnc2nc[nH]c12 [6-mercaptopurine] |  | < 0.0301 | < 0.0301 | < 0.0301 | < 0.0301 | < 0.0301 | 0.588 | < 0.0301 | < 0.0301 | 0.0529
CCOC(=O)N1c2ccc(C(F)(F)F)cc2[C@@H](N(Cc2cc(C(F)(F)F)cc(C(F)(F)F)c2)C(=O)OC)C[C@H]1CC [Torcetrapib] | 0.212 | < 0.0301 | < 0.0301 | < 0.0301 | < 0.0301 | < 0.0301 |  | 0.197 | < 0.0301 | 0.239
Nc1ccn([C@@H]2O[C@H](CO)[C@@H](O)[C@@H]2O)c(=O)n1 [Cytarabine] | 0.205 | 0.0784 | 0.0325 | 0.109 |  | 0.142 | 0.85 | 0.418 | 0.0847 | 0.719
C[C@]12O[C@H](C[C@]1(O)CO)n1c3ccccc3c3c4c(c5c6ccccc6n2c5c31)CNC4=O [Lestaurtinib] | 0.124 | 0.235 | 0.125 | 0.533 | 0.654 | 0.622 | 0.929 | 0.191 | 0.211 | 0.813
Clc1ccc(COC(Cn2ccnc2)c2ccc(Cl)cc2Cl)cc1 (stereo not drawn) [Econazole] | 0.277 | < 0.0301 | < 0.0301 | < 0.0301 | 0.0311 | < 0.0301 | 0.499 | 0.202 | < 0.0301 | 0.439
CCN(CC)CCN(Cc1ccc(-c2ccc(C(F)(F)F)cc2)cc1)C(=O)Cn1c(SCc2ccc(F)cc2)nc(=O)c2c1CCC2 [Darapladib] | 0.104 | 0.137 | 0.134 | 0.124 | 0.111 | 0.123 | 0.947 | 0.502 | 0.117 | 0.625
Cc1noc2c1-c1ccccc1C(c1ccc(Cl)cc1)=N[C@H]2CC(N)=O [CPI-0610] | 0.458 | 0.18 |  | 0.423 | 0.264 | 0.423 | 0.74 | 0.0768 |  | 0.34
COc1c(C)c2c(c(O)c1C/C=C(\C)CCC(=O)O)C(=O)OC2 [Mycophenolic acid] |  | < 0.0301 | < 0.0301 | < 0.0301 | < 0.0301 | 0.0528 | < 0.0301 | < 0.0301 | 0.0355 | 
CC(Cc1ccc(O)c(O)c1)C(C)Cc1ccc(O)c(O)c1 (stereo not drawn) [Masoprocol] | < 0.0301 | < 0.0301 | 0.0847 | 0.111 | 0.075 | 0.119 | < 0.0301 | 0.294 | 0.186 | 0.3
C[C@H]1O[C@@H](O[C@H]2[C@@H](O)C[C@H](O[C@H]3[C@@H](O)C[C@H](O[C@H]4CC[C@@]5(C)[C@H](CC[C@@H]6[C@@H]5C[C@@H](O)[C@]5(C)[C@@H](C7=CC(=O)OC7)CC[C@]65O)C4)O[C@@H]3C)O[C@@H]2C)C[C@H](O)[C@@H]1O [Digoxin] | < 0.0301 | 0.471 | 0.275 | 0.493 | 0.348 | 0.42 | 0.611 | < 0.0301 | 0.425 | 0.609
